These results are taken from paper PMC12036875, “Mitochondria-targeting natural product rhein conjugated with dichloroacetate as the dual inhibitor of glycolysis and oxidative phosphorylation to off energize cancer cells and induce ROS storm” (Theranostics, 2025).

The structures appear in SMILES notation.

Data set [1] deals with 4T1 cells. Put plainly: Cell apoptosis assay (Annexin V-Alexa Fluor 647/PI flow cytometry). It counts as cell-based, Mouse. Particulars: 6.25 μM, 24 h. The procedure:
Correspondingly, the fall of intracellular ATP amount and the release of Cyt C directly drove cells into apoptosis. Flow cytometry apoptosis assay was conducted on the 4T1 cells after culture with different drugs at 6.25 μM for 24 h. The treated cells were stained with Annexin V-Alexa Flour 647 and PI. […] Since the antitumor effect could only be achieved when DCA was used in high dose, it is in agreement with reported literature. Similar to rhein group, the apoptosis rate in R + D group increased to approximately 12%.
Annexin V/PI staining was used to analyze the apoptosis of cancer cells. 4T1 cells were seeded into 6-well plates at a density of 10 × 10^4 cells per well. The cells were permitted to resume exponential growth for 24 h and treated with various drugs. After another 24 h incubation, the supernatant was collected in 1.5 mL tubes. The cells were treated with 100 μL of 0.25% Trypsin-EDTA for 2 min, subsequently 300 μL fresh medium were added which was combined with the corresponding supernatant. The cells were obtained following centrifugation at 434 G for 5 min and washed twice with PBS, and then resuspended in 500 μL of binding buffer (1 ×). The cells were stained with Annexin V/Alexa Fluor 647 and PI (20 μg/mL) for 5 min at room temperature in the dark. The fluorescence signal was immediately detected by flow cytometry and the data were analyzed by FlowJo software.

Data set [2] deals with 4T1 cells. Put plainly: ROS generation assay. It counts as cell-based, Mouse. The settings on record: for intracellular ROS (DCFH-DA fluorescence intensity): 6.25 μM, 6 h. The procedure:
Rhein is thought to trigger the generation of ROS inside cells by inhibiting mitochondrial complex II, blocking electron transfer from succinate to ubiquinone, which leads to electron leakage at the flavoprotein site, [32]. Therefore, we investigated the ROS production within 4T1 cells in control, DCA, rhein, R + D and Rhein-DCA groups. […] Then, the cellular superoxide radical anion type of ROS production was further detected using dihydroethidium (DHE) fluorescence dyes after incubation with 4T1 cells. […] The flow cytometry was used to further confirm the types of reactive oxygen species, including singlet oxygen (^1O2) and hydroxyl radicals (·OH). The ^1O2 increased greatly about 2.4-fold compared with the control group, and ·OH increased about 1.4-fold (Figure 5D-E). […] Due to the conjugating of rhein, the more mitochondrial accumulation and enhanced PDK inhibition activity of DCA promoted the energy metabolism to redirect towards OXPHOS, increased the mitochondrial electron flux, and amplified the generation of ROS. Excessive ROS would cause oxidative damage of mitochondria and further frustrate OXPHOS, leading to the effectively suppress for cancer cells.
The generation of intracellular ROS within 4T1 cells was measured with DCFH-DA, BBoxiProbe O28 and BBoxiProbe O68 and evaluated by flow cytometry. 4T1 cells were seeded into 6-well plates at a density of 10 × 10^4 cells per well and cultured at 37 °C for 24 h. The cells were treated with rhein (6.25 μM), DCA (6.25 μM), R + D (6.25 μM + 6.25 μM) and Rhein-DCA (6.25 μM) for another 6 h. Cells were detached from the plates with 0.25% Trypsin-EDTA after washed twice with PBS, flowing staining with DCFH-DA (10 μM), BBoxiProbe O28 (Ex = 516 nm, Em = 606 nm) and BBoxiProbe O68 (Ex = 516 nm, Em = 606 nm) for 20 min at 37 °C in the dark.
The level of intracellular superoxide radical anion in 4T1 cells was analyzed with DHE by confocal microscope. 4T1 cells were seeded into confocal dishes with a density of 10 × 10^4 cells per well and treated with various drugs for 24 h and washed twice with PBS, flowing staining with DHE probe (5 μM) for 30 min at 37 °C in the dark. The cellular nuclei were stained with Hoechst 33342 for 10 min at room temperature. The fluorescent images were observed by confocal microscope.

The nature of data set [3]: Stability in simulated gastrointestinal environment (HPLC). It counts as physicochemical. Particulars: 37°C, within 2 h. On the procedure:
The proven oral administration experiences of rhein and DCA validated the feasibility and potential of our research on the oral administration of their derivative, Rhein-DCA [34], [35]. We first evaluated the stability of Rhein-DCA by simulating gastric acid (pH 1.5) and intestinal (pH 6.8) conditions in vitro with HPLC. The stability of the Rhein-DCA was as high as 85% within 2 h, indicating the stable of Rhein-DCA in gastrointestinal environment, and it was capable of being efficiently absorbed via the gastrointestinal tract (Figure S21).
Prepare phosphate buffer solutions at pH 1.5 (gastric simulation) and pH 6.8 (intestinal simulation). Rhein-DCA was added to the buffer and incubated at 37°C. Samples were collected at 0, 2, 4, and 6 h for HPLC analysis. Calculate stability (%) = (Ct / C0) × 100, where Ct and C0 are concentrations at time t h and 0 h, respectively.

A short description of data set [4]: Pharmacokinetic study after oral administration. The settings on record: SD rats, I.G. 20 mg/kg, mean ± S.D., n = 3. The class given is in vivo, Sprague-Dawley (SD) rats. On the procedure:
HPLC was conducted to evaluate the absorption and distribution of Rhein-DCA conjugate in […] after oral administration. Rhein-DCA was orally administered to Sprague-Dawley (SD) rats at 20 mg/kg, and the concentration of the drug in the blood samples was serially measured at predefined time points.
HPLC was used to evaluate the absorption and distribution of Rhein-DCA in […] after oral administration. Rhein-DCA was orally administered to Sprague-Dawley (SD) rats at 20 mg/kg. and the blood samples were serially collected at predefined time points (0.5, 1.5, 2, 3, 4, 5, 6, 8, 10 and 24 h). Centrifuge the blood at 3000 G for 10 min to separate serum, and the serum was mixed with methanol (1:3, v/v), vortexed for 3 min, and centrifuged at 13000 G for 10 min. The supernatant was filtered through a 0.22 µm membrane for HPLC assay. Pharmacokinetic parameters were derived using DAS 2.0 software with non-compartmental analysis (NCA).

Usually AUC(0-inf) stands for the area under the concentration-time curve extrapolated to infinity. High values mean high exposure, low ones low exposure. What is called AUC(0-t) is exposure summed from dosing to a finite time, without extrapolation to infinity. Read a low AUC(0-t) as less exposure. A word on the Cmax: it is the peak of the concentration-time curve. Broadly, the Tmax is the time at which the peak concentration occurs. The half-life is the time in which the quantity being followed falls by half. Turning to `O=C(OCCOC(=O)C(Cl)Cl)c1cc(O)c2c(c1)C(=O)c1cccc(O)c1C2=O` [Rhein-DCA], the apoptosis rate in the data set with 4T1 cells [1] came to 37.4%. Further, in the data set on 4T1 cells [2] (flow cytometry), the “intracellular ROS (DCFH-DA fluorescence intensity)” value is “stronger fluorescence signal”, the “^1O2 increase compared with control group” value was “about 2.4 fold” and the “·OH increase compared with control group” value is “about 1.4 fold”. For the same compound, the “superoxide radical anion (DHE fluorescence)” value with 4T1 cells [2] (24 h, CLSM) is “remarkable red intensity”. Moreover, the “stability in simulated gastric acid (pH 1.5) and intestinal (pH 6.8) conditions” value in data set [3] was 85%. Also, in data set [4], the CL was found to be 37.5 mL/min/kg and the Vd is on record as 17.11 ± 8.08 L/kg. In addition, in data set [4] (Sprague-Dawley, rat, serum, po), the AUC(0-inf) stood at 8980 ng·h/mL, the AUC(0-t) worked out at 8220 ± 330 ng·h/mL, the Cmax came out at 2680 ng/mL and the Tmax came to 1.5 h. The compound further showed a half-life in data set [4] (Sprague-Dawley, rat, serum, po) of 5.54 h.
For the compound `O=C(O)C(Cl)Cl` [DCA, Dichloroacetate], the “apoptosis in comparison with control group, in words” value in the data set on 4T1 cells [1] is on record as “no obvious changes”.
In the case of `O=C(O)c1cc(O)c2c(c1)C(=O)c1cccc(O)c1C2=O` [Rhein, 4,5-dihydroxyanthraquinone-2-carboxylic acid], in the data set on 4T1 cells [2] (flow cytometry), the “intracellular ROS (DCFH-DA fluorescence intensity)” value is “slight enhancement”.
